The structures appear in SMILES notation.

Data on 1 molecule can be found in PMC9948168, “Vanillin-Based Indolin-2-one Derivative Bearing a Pyridyl Moiety as a Promising Anti-Breast Cancer Agent via Anti-Estrogenic Activity” (ACS Omega, 2023).

In one data set the test system is MCF-12A cells. Nature of the data set: Morphological assessment under inverted microscope. The format is cell-based, human. To be noted: 50 and 100 μM; 48 h after treatment. The method, then: (§1) In addition to the viability analyses, morphological evaluations were performed after treating the cells with different doses of 6j (5, 10, 20, 50, and 100 μM) to better understand what was going on in the plate wells. The cells were photographed under an inverted microscope 48 h after 6j treatment. […] The cell morphology has not deteriorated, and the membrane structures were preserved in a healthy way in the 6j-applied cells.
(§2) Morphological studies were performed to observe the effects of 6j on MCF-7 and MCF-12A cells, as previously reported.[63] In brief, 5 × 10^5 cells were seeded into six-well plates and incubated for 24 h. Afterward, increasing doses of compound 6j (5, 10, 20, 50, and 100 μM) were applied to the cells. The medium containing 0.1% DMSO was used as the untreated control. 48 h after treatments, the cells were photographed under an inverted microscope, Leica DM IL LED with a DFC-290 camera (Leica, Wetzlar, Germany).

In a further data set the test system is MCF-7 cells. Nature of the data set: Morphological assessment under inverted microscope. The conditions noted are these: 50 and 100 μM; 48 h after treatment. The format is cell-based, human. Here is the method:
as §1, §2

For data set [1], the system named is estrogen-induced uterotrophic effect. Description: In vivo anti-estrogenic (anti-uterotrophic) activity, immature rat model. More on the design: species or system Wistar immature female rats. To be noted: oral, 20 mg/kg (tamoxifen 20 mg/kg/day, 6j equimolar per method), 3 days, with estradiol 10 μg/kg/day s.c.; immature female rats. The method, then:
The anti-estrogenic activity was assessed as previously described.[65]−[67] All experiments were carried out in accordance with the recommendations of the […] Animal Care and Use Committee. The experimental protocol was approved by “The Commission on the Ethics of Scientific Research”, Faculty of Pharmacy, Minia University (no. ES30/2021). 20-day-old Wistar immature female rats (40–50 g) from the animal care facility of Nahda University at Beni Suef (NUB) were allowed to acclimatize to lab conditions for 3 days before the experiment with free access to food and water. Estradiol was diluted in olive oil and subcutaneously injected on the loose dorsal skin in a dose of 10 μg/kg/day. […] Both compounds were dissolved in a mixture of DMSO, Tween 20, and saline (1:1:8, respectively) and orally administered. The rats were randomly assigned to […] (n = 6) subjected to daily s.c. injections of estradiol, except for the control group. […] On the 4th day, all rats were sacrificed by cervical dislocation, and the uteri were dissected free of fat and weighed immediately. […] The results were expressed as percent inhibition from the formula [drawing 1] […] It is noteworthy that doses of the tested compounds are calculated on a molar basis. […] Values are expressed as mean ± SEM.

Regarding `COc1cc(C=C2C(=O)Nc3ccc(Cl)cc32)ccc1OCc1ccccn1` (mixture of isomers) [6j], the “MCF-12A cell morphology / proliferation” value in the data set with MCF-12A cells is “continued to proliferate”. For the same molecule, the “MCF-7 cell morphology / proliferation” value in the data set with MCF-7 cells is listed as “remained stable by stopping cell division without being toxic”. Also, in data set [1], the “anti-uterotrophic activity (inhibition of estrogen-induced uterine weight)” value is 38%.
